Data set [1] addresses T1, human iNOS (Homo sapiens, UniProt P35228). The experiment in a line: Inhibition of recombinant human iNOS (baculovirus/insect cell cytosol, spectrophotometric microtitre plate assay). The class given is biochemical. Set-up: made in house; host or cells: baculovirus/insect cell system; insect cytosol assayed unpurified. As to conditions: 37° C., L-arginine 30 μM, steady-state 15-30 min; mean ±SEM (n). How it is done: Inhibition of recombinant human iNOS was determined following expression in a baculovirus/insect cell system (Charles et al (1994) In: The Biology of Nitric Oxide 4, Moncada S., Feelisch M., Busse R. and Higgs E. A., eds., Portland Press, London, pp 316-320), assaying the insect cytosol for NO synthase in a microtitre plate assay based on the spectrophotometric assay described previously (Knowles et al (1990) Biochem. Biophys. Res. Commun. 172, 1042-1048). The assay was conducted at 37° C. in reaction mixtures containing HEPES (100 mM), DTT (0.1 mM), tetrahydrobiopterin (5 μM), NADPH (100 μM), haemoglobin (5 μM), L-arginine (30 μM) and inhibitor (0-300 μM), measuring the absorbance change at 405-420 nm, and determining the steady-state inhibition between 15 and 30 minutes incubation.

For another data set, the target named is T2, human eNOS (Homo sapiens, UniProt P29474).
T2 construct: made in house
The experiment in a line: Inhibition of purified human eNOS ([14C]-L-arginine to citrulline conversion). The data set is classed as biochemical. As to conditions: purified human enzyme, 30° C., 0.5 μM [14C]-L-arginine; read-out: Purified Human Enzyme Kd tNOS. How it is done:
(§1) The inhibition of purified human NO synthases was determined following preparation of human nNOS (Furfine et al. (1993) Biochem. 32, 8512-8517), iNOS (Sherman et al. (1993) Biochem. 32, 11600-11605) and eNOS (Garvey et al. (1994) Arch. Bioch. Biophys., in press) as described. Their activity was monitored by the conversion of [^14C]-L-arginine to citrulline as described by Schmidt et al. ((1991) Proc. Natl. Acad. Sci. USA 88, 365-369) in reaction mixtures (100 μl) containing 50 mM HEPES pH 7.0, 8 μM tetrahydrobiopterin, 1 mM NADPH and 0.5 μM [^14C]-L-arginine (30,000 cpm) at 30° C.

Another data set deals with T3, eNOS in rat aortic rings (Rattus norvegicus, UniProt Q62600).
T3 construct: from tissue; host or cells: rat thoracic aorta rings with intact endothelium
The experiment in a line: Inhibition of eNOS in situ in rat aortic rings (basal tone, intact endothelium). The class given is cell-based. As to conditions: rings with intact endothelium; for inhibition at 300 µM: read-out: inhibition at 300 μM, cNOS in rat sortic rings; for IC50: basal tone, mean ±SEM (n), read-out: IC50 cNOS in rat sortic rings. As to the method:
(§2) The inhibition of eNOS and iNOS in situ in rat aortic rings was assessed by measuring the increases in ring tension caused by NO synthase inhibition. For studies of basal tone (reflecting eNOS), rings of thoracic aorta with intact endothelium were prepared as described previously (Rees et al. (1989) Br. J. Pharmacol. 96, 418-424) and cumulative concentration curves obtained for the inhibitors in the presence of a threshold concentration of phenylephrine (ED10≈10 nM). For studies of induced smooth muscle tone (reflecting iNOS), endothelium-denuded rings were exposed to LPS (0.1 μg/ml from S. typhosa) in the presence of phenylephrine at approximately ED90 for 6 h as described previously (Rees et al. (1990) Biochem. Biophys. Res. Commun. 173, 541-547). During this time a progressive loss of tone occurred because of iNOS induction. Cumulative concentration curves were then obtained for the inhibitors.

The target in the next data set is T4, iNOS in rat aortic rings (Rattus norvegicus, UniProt Q06518).
T4 construct: During this time a progressive loss of tone occurred because of iNOS induction; from tissue; host or cells: rat thoracic aorta rings, endothelium-denuded, exposed to LPS
The experiment in a line: Inhibition of iNOS in situ in rat aortic rings (LPS-induced loss of tone, endothelium-denuded rings). As to conditions: for IC50: endothelium-denuded rings, LPS 6 h, mean ±SEM (n), read-out: IC50 iNOS in rate sortic rings; for Selectivity for iNOS: rat aortic rings, iNOS vs eNOS. The data set is classed as cell-based. As to the method:
as §2

A further data set deals with T5, human nNOS (Homo sapiens, UniProt P29475).
T5 construct: made in house
The experiment in a line: Inhibition of purified human nNOS ([14C]-L-arginine to citrulline conversion). The class given is biochemical. As to conditions: 30° C., 0.5 μM [14C]-L-arginine, read-out: Purified Human Enzyme Kd nNOS. How it is done: as §1

The target in data set [2] is T1, human iNOS. The experiment in a line: Inhibition of purified human iNOS ([14C]-L-arginine to citrulline conversion). The class given is biochemical. Set-up: made in house. As to conditions: for Selectivity for iNOS vs. cNOS: purified human enzymes, ratio of Kd; for Selectivity for iNOS vs. cNOS [relative to LNMMA]: value in square brackets. As to the method:
as §1

Data set [3] has as its system iNOS. The experiment in a line: Endotoxin induced vascular (plasma) leakage in rats. The data set is classed as in vivo. As to the method: The effects of Example 7 on endotoxin induced vascular leakage were assessed in rats as described by Laszlo et al ((1994) Brit. J. Pharmacol. 111 1309-1315). […] However, Example 7 did abolish the iNOS-dependent delayed plasma leakage, with an ED50 of 1 mg/kg.

A further data set has as its target T6, eNOS (Mus musculus, UniProt P70313).
T6 construct: from tissue; host or cells: whole animal: female CD-1 mice, untreated
The experiment in a line: Blood pressure in normal conscious mice (eNOS in vivo). As to conditions: conscious female CD-1 mice, dose range 1-1000 mg/kg, intravenous. As to the method:
(§3) The inhibition of eNOS and iNOS in vivo was assessed by the effects of inhibitors on blood pressure in either normal (eNOS) or endotoxin shocked (iNOS) conscious mice. Female CD-1 mice (25-35 g) were anaesthetised briefly with isofluorane (2%). Cannula lines were implanted in the femoral vein, tunnelled subcutaneously to exit at the top of the back and connected to a swivel tether system for continuous monitoring of blood pressure and for inhibitor administration respectively. Following recovery from surgery, animals with mean blood pressures in the normal range (90-110 mm Hg) were used to obtain cumulative concentration curves for inhibitors on blood pressure either without further treatment (“normal mice”) or 7 h after administration of lipopolysaccharide (12.5 mg/kg of LPS from E. coli 026:B6 intravenously over 30 s) to induce shock (“shocked mice”).

Data set [4] concerns the target T7, iNOS (Mus musculus, UniProt P29477).
T7 construct: from tissue; host or cells: whole animal: female CD-1 mice, 7 h after LPS
The experiment in a line: Blood pressure in endotoxin shocked conscious mice (iNOS in vivo). As to conditions: conscious female CD-1 mice, 7 h after LPS 12.5 mg/kg i.v. As to the method:
as §3

Where [5] appears, read: purified human iNOS, 30° C., 0.5 μM [14C]-L-arginine, read-out: Purified Human Enzyme Kd iNOS.

SMILES strings stand for the structures. Where a name gives a salt, the structure may show the parent alone. Read-outs that look alike come from different tables or passages of the source.

For orientation: IC50 means the concentration at which inhibition is half-maximal. Broadly, the Kd is a measure of binding affinity in units of concentration. By inhibition is commonly meant the drop in the measured response relative to a control, in per cent.

Take `N=C(CO)NCCS(=O)(=O)CC(N)C(=O)O` (stereo not drawn) [Example 6, 2-Amino-6-(2-hydroxy-1-iminoethylamino)-4,4-dioxo-4-thiahexanoic acid 1.67 hydrochloride 0.33 hydrobromide]: the IC50 at human iNOS [1] was more than 300 µM.

Take `Br.Br.N=C(CF)NCCS(=O)(=O)CC(N)C(=O)O` (stereo not drawn) [Example 1, 2-Amino-6-(1-imino-2-fluoroethylamino)-4,4-dioxo-4-thiahexanoic acid dihydrobromide]: the Kd on human eNOS turned out to be 23 µM; at human nNOS, 26 µM; at human iNOS [2] (setting [5]), 1.9 µM. The inhibition at 300 µM on eNOS in rat aortic rings was 8%. The concentration for half-maximal inhibition (IC50) is more than 300 µM at eNOS in rat aortic rings, 1.7 ± 0.7 µM at iNOS in rat aortic rings and 5.5 ± 0.55 µM on human iNOS [1]. For the same compound, at iNOS in rat aortic rings, the “Selectivity for iNOS” value was >>200-fold. The “Selectivity for iNOS vs. cNOS” value on human iNOS [2] was determined as 12. The “Selectivity for iNOS vs. cNOS [relative to LNMMA]” value (“Selectivity … [relative to LNMMA]” below) at human iNOS [2] came to 33.

Consider `CC(=N)NCCS(=O)(=O)CC(N)C(=O)O` (stereo not drawn) [Example 7, 2-Amino-6-(1-iminoethylamino)-4,4-dioxo-4-thiahexanoic acid], for which the Kd stood at 29 µM on human eNOS; 18 µM on human nNOS; 0.1 µM at human iNOS [2] (footnote: inhibition strongly time dependant on iNOS, read-out: Kd on iNOS, time dependent inhibition); 2.9 µM at human iNOS [2] (setting [5]). Further, the results for the IC50 at eNOS in rat aortic rings, at iNOS in rat aortic rings and on human iNOS [1] were 101 ± 21 µM, 1.5 ± 0.3 µM and 14 ± 0.6 µM, respectively. For the same compound, the “Selectivity for iNOS” value on iNOS in rat aortic rings is recorded as 67-fold. In addition, the “aggravation of the endotoxin-induced plasma leakage” value in the data set on iNOS [3] (doses up to 5 mg/kg, administered concurrently with endotoxin) is listed as “did not cause aggravation”. In addition, in the data set with iNOS [3] (endotoxin induced), the “ED50, abolition of iNOS-dependent delayed plasma leakage” value was found to be 1 mg/kg. Further, the “effect on blood pressure in normal mice” value at eNOS is given as “no effect on blood pressure”. Further, the “Selectivity for iNOS vs. cNOS” value on human iNOS [2] turned out to be 27. Moreover, the “Selectivity … [relative to LNMMA]” value on human iNOS [2] was 73. For the same compound, the “effect on blood pressure in shocked mice” value at iNOS [4] was “restore fully the blood pressure to the normal range”.

Take `CSCC(=N)NCCS(=O)(=O)CC(N)C(=O)O` (stereo not drawn) [Example 5, 2-Amino-6-(2-methylthio-1-imioethylamino)-4,4-dioxo-4-thiohexanoic acid]: the IC50 at human iNOS [1] amounted to 95 ± 3 µM.

In the case of `N=C(COCc1ccccc1)NCCS(=O)(=O)CC(N)C(=O)O` (stereo not drawn) [Example 4, hydrobromide], the IC50 at human iNOS [1] is more than 300 µM.

With `CC(=O)OCC(=N)NCCS(=O)(=O)CC(N)C(=O)O` (stereo not drawn) [Example 3, dihydrobromide], at human iNOS [1], the IC50 is more than 300 µM.

Consider `CC(=N)NCC[S+]([O-])CC(N)C(=O)O` (stereo not drawn) [Example 8, 2-Amino-6-(1-iminoethylamino)-4-oxo-4-thiahexanoic acid], for which the Kd on human eNOS stood at 100 µM. In addition, at eNOS in rat aortic rings, the inhibition at 300 µM is 42% and the IC50 was more than 300 µM. In addition, at iNOS in rat aortic rings, the IC50 was 2.7 ± 0.2 µM and the “Selectivity for iNOS” value is reported as more than 100 fold. At human nNOS, the equilibrium dissociation constant (Kd) stood at 68 µM. In addition, on human iNOS [2], the “Selectivity for iNOS vs. cNOS” value stood at 11 and the “Selectivity … [relative to LNMMA]” value stood at 30. For the same compound, on human iNOS [2] (setting [5]), the Kd was 9.1 µM.

For the compound `COCC(=N)NCCS(=O)(=O)CC(N)C(=O)O` (stereo not drawn) [Example 2, 2-Amino-6-(1-imino-2-methoxyethylamino)-4,4-dioxo-4-thiohexanoic acid dihydrobromide dihydrate], the inhibition at 300 µM at eNOS in rat aortic rings stood at 26%. Besides, the IC50 is more than 300 µM at eNOS in rat aortic rings, 33 ± 13 µM on iNOS in rat aortic rings and 30 ± 3 µM on human iNOS [1]. Also, the “Selectivity for iNOS” value on iNOS in rat aortic rings is >10-fold.

These data come from USRE39576E1, “Enzyme inhibitors” (Smithkline Beecham Corporation, priority 1994, dated 2007).
